In US9617244B2, “Antibacterial quinoline derivatives” (JANSSEN PHARMACEUTICA NV, priority 2012, dated 2017):
Converted amounts (≈) assume the structure as drawn.

Columns and labels:
[1] = test system: Staphylococcus aureus (ATCC29213); assay: In-vitro anti-bacterial activity, microtitre plate assay, IC90 determination (non-mycobacterial strains); format: cell-based; settings: 90% inhibitory concentration for bacterial growth, resazurin fluorescence; for IC90 STA B29213: 24 hours; for IC90: Staphylococcus aureus, ATCC29213, 24 h, read-out: IC90 STA B29213
How it was run: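 Growth inhibition measured fluorometrically with resazurin (530/590 nm) after overnight 37 °C incubation under normal atmosphere. Bacteria added at roughly 100 TCID50 per well in Mueller-Hinton broth to five-fold compound dilution series; IC90 reported in μg/ml.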

[2] = test system: Mycobacterium smegmatis (ATCC607); assay: In-vitro anti-bacterial activity against strain M. Smegmatis ATCC607; format: cell-based; settings: 90% inhibitory concentration for bacterial growth, Alamar Blue fluorescence; for IC90 MSM 607: 48 hours; for IC90: Mycolicibacterium smegmatis, ATCC607, 48 h, read-out: IC90 MSM 607
How it was run: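 IC90 (μg/ml) derived from Alamar Blue fluorescence (530/590 nm) after 48 h growth at 37 °C under 5% CO2. About 250 CFU per well in Mueller-Hinton broth faced five-fold serial compound dilutions in BSA-containing wells.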

| SMILES | IC90 STA B29213 [1] [µg/mL] | IC90 MSM 607 [2] [µg/mL] | IC90 [1] [µg/mL] | IC90 [2] [µg/mL] |
| --- | --- | --- | --- | --- |
| COc1nc2ccc(Cl)cc2cc1C(c1ccc(Cl)cc1)C1(O)CCNCC1c1ccccc1 (stereo not shown) [Compound 410] | 12.25 (≈ 24.8 µM) | 7.73 (≈ 15.7 µM) |  |  |
| CSc1ccc2[nH]c(=O)c(C(c3cccc(Cl)c3)C3(O)CCNC(c4ccc(F)cc4C)C3)cc2c1 (stereo not shown) [Compound 161] | 6.90 (≈ 13.2 µM) | 6.90 (≈ 13.2 µM) |  |  |
| COc1nc2ccccc2cc1C(c1ccccc1)C1(O)CCNC(c2ccccc2)C1 (stereo not shown) [Compound 413] |  |  | 18.2 (≈ 43 µM) | 18.2 (≈ 43 µM) |
| COc1nc2ccc(Br)cc2cc1C(c1cccnc1)C1(O)CCNC(Cc2ccccc2)C1 (stereo not shown) [Compound 428] | 15.06 (≈ 29 µM) | 10.66 (≈ 20.6 µM) |  |  |
| COc1nc2ccccc2cc1C(c1ccccc1)C1(O)CCNC(Cc2ccccc2)C1 (stereo not shown) [Compound 399] |  |  | > 12.5 | > 12.5 |
| CSc1ccc2[nH]c(=O)c(C(c3ccc(Cl)cc3)C3(O)CCNC(Cc4ccc(F)cc4)C3)cc2c1 (stereo not shown) [Compound 333] | 2.50 (≈ 4.78 µM) | 3.53 (≈ 6.75 µM) |  |  |
| CSc1ccc2nc(O)c(C(c3ccccc3)C3(O)CCNC(c4ccc(F)cc4C)C3)cc2c1 (stereo not shown) [Compound 182] |  |  | 6.6 (≈ 13.5 µM) | 6.6 (≈ 13.5 µM) |
| O=c1[nH]c2ccc(Br)cc2cc1C(c1cccc(Cl)c1)C1(O)CCNC(Cc2ccccc2)C1 (stereo not shown) [Compound 85] | 7.23 (≈ 13.4 µM) |  |  | 3.62 (≈ 6.73 µM) |
| O=c1[nH]c2ccc(Br)cc2cc1C(c1ccc(Cl)cc1)C1(O)CCNC(Cc2ccc(F)cc2F)C1 (stereo not shown) [Compound 315] | 3.84 (≈ 6.69 µM) | 3.84 (≈ 6.69 µM) |  |  |
| CSc1ccc2[nH]c(=O)c(C(c3cccc(Cl)c3)C3(O)CCNC(Cc4ccc(F)cc4F)C3)cc2c1 (stereo not shown) [Compound 312] | 3.62 (≈ 6.69 µM) | 3.62 (≈ 6.69 µM) |  |  |
| O=c1[nH]c2ccc(Br)cc2cc1C(c1ccc(Cl)cc1)C1(O)CCNC(Cc2ccc(F)cc2F)C1 (stereo not shown) [Compound 321] | 15.33 (≈ 26.7 µM) | 12.18 (≈ 21.2 µM) |  |  |
| CS(=O)(=O)c1ccc2[nH]c(=O)c(C(c3ccc(Cl)cc3)C3(O)CCN[C@@H](Cc4ccc(F)c(F)c4)C3)cc2c1 (stereo in doubt) [Compound 205] | >15.22 | >15.22 |  |  |
| COc1nc2ccc(Cl)cc2cc1C(c1ccc(Cl)cc1)C1(O)CCNC(CNc2cccnc2)C1 (stereo not shown) [Compound 470] | 5.23 (≈ 9.99 µM) | 3.08 (≈ 5.88 µM) |  |  |
| O=c1[nH]c2ccc(Br)cc2cc1C(c1ccc(Cl)cc1)C1(O)CCNCC1Cc1cccc(F)c1 (stereo not shown) [Compound 49] |  | 1.79 (≈ 3.22 µM) | 2.25 (≈ 4.05 µM) |  |
| COc1nc2ccc(Cl)cc2cc1C(c1ccc(Cl)cc1)C1(O)CCNC(c2ccccc2)C1 (stereo not shown) [Compound 404] | 2.99 (≈ 6.06 µM) | 1.68 (≈ 3.4 µM) |  |  |
| CC1CC(O)(C(c2ccc(Cl)cc2)c2cc3cc(Br)ccc3[nH]c2=O)CCN1 (stereo not shown) [Compound 129] |  |  | 12.5 (≈ 27.1 µM) | 7.9 (≈ 17.1 µM) |
| Cc1cc(F)ccc1C1CC(O)(C(c2ccc(Cl)cc2)c2cc3cc(S(C)(=O)=O)ccc3[nH]c2=O)CCN1 (stereo not shown) [Compound 220] | >14.80 | >14.80 |  |  |
| COc1nc2ccc(Cl)cc2cc1C(c1ccc(Cl)cc1)C1(O)CCNC(Cc2ccccc2)C1 (stereo not shown) [Compound 95] | 2.02 (≈ 3.98 µM) | 1.43 (≈ 2.82 µM) |  |  |
| Cc1cc(F)ccc1C1CC(O)(C(c2cccc(Cl)c2)c2cc3cc(S(C)(=O)=O)ccc3[nH]c2=O)CCN1 (stereo not shown) [Compound 159] | >14.69 | >14.69 |  |  |
| O=c1[nH]c2ccc(Br)cc2cc1C(c1ccc(Cl)cc1)C1(O)CCNC(CC2CCCCC2)C1 (stereo not shown) [Compound 6] | 1.83 (≈ 3.36 µM) | 9.18 (≈ 16.9 µM) |  |  |
| O=c1[nH]c2ccc(Br)cc2cc1C(c1ccc(Cl)cc1)C1(O)CCNC(CC2CCCCC2)C1 (stereo not shown) [Compound 258] | 3.66 (≈ 6.73 µM) | 3.66 (≈ 6.73 µM) |  |  |

| SMILES | IC90 STA B29213 [1] [µg/mL] | IC90 MSM 607 [2] [µg/mL] | IC90 [1] [µg/mL] | IC90 [2] [µg/mL] |
| --- | --- | --- | --- | --- |
| C=CC1CC(O)(C(c2ccc(Cl)cc2)c2cc3cc(Br)ccc3[nH]c2=O)CCN1 (stereo not shown) [Compound 360] | 12.82 (≈ 27.1 µM) | 6.42 (≈ 13.6 µM) |  |  |
| O=c1[nH]c2ccc(Cl)cc2cc1C(c1ccc(Cl)cc1)C1(O)CCNCC1F (stereo not shown) [Compound 457] |  |  | 11.5 (≈ 27.3 µM) | 5.76 (≈ 13.7 µM) |
| Cc1cc(F)ccc1C1CC(O)(C(c2cccc(Cl)c2)c2cc3cc(S(C)(=O)=O)ccc3[nH]c2=O)CCN1 (stereo not shown) [Compound 42] | 7.34 (≈ 13.2 µM) | 2.60 (≈ 4.68 µM) |  |  |
| COc1nc2ccc(F)cc2cc1C(c1ccc(SC)cc1)C1(O)CCNC(c2ccc(F)cc2C)C1 (stereo not shown) [Compound 407] | 1.65 (≈ 3.17 µM) | 1.17 (≈ 2.25 µM) |  |  |
| COc1nc2ccccc2cc1C(c1ccc(Cl)cc1)C1(O)CCNC(c2cccnc2)C1 (stereo not shown) [Compound 27] |  |  | 11.6 (≈ 25.1 µM) | 7.29 (≈ 15.8 µM) |
| COc1nc2ccc(SC(C)C)cc2cc1C(c1ccc(Cl)cc1)C1(O)CCNC(Cc2ccccc2)C1 (stereo not shown) [Compound 384] | 3.45 (≈ 6.31 µM) | 2.18 (≈ 3.98 µM) |  |  |
| COc1nc2ccc(SC)cc2cc1C(c1cccc(Cl)c1)C1(O)CCNC(c2ccc(F)cc2C)C1 (stereo not shown) [Compound 163] | 1.70 (≈ 3.17 µM) | 1.20 (≈ 2.23 µM) |  |  |
| COc1nc2ccc(SC)cc2cc1C(c1ccc(Cl)cc1)C1(O)CCNC(CC2CCCCC2)C1 (stereo not shown) [Compound 289] | 4.23 (≈ 8.05 µM) | 3.36 (≈ 6.4 µM) |  |  |
| COc1nc2ccc(Cl)cc2cc1C(c1ccc(Cl)cc1)C1(O)CCNCC1c1ccccc1 (stereo not shown) [Compound 409] | 2.01 (≈ 4.07 µM) | 6.36 (≈ 12.9 µM) |  |  |
| COc1ccc2nc(OC)c(C(c3ccccc3)C3(O)CCNC(Cc4ccccc4)C3)cc2c1 (stereo not shown) [Compound 408] |  |  | > 19.2 | > 19.2 |
| COc1nc2ccc(Cl)cc2cc1C(c1ccc(Cl)cc1)C1(O)CCNCC1C (stereo not shown) [Compound 420] |  | 5.43 (≈ 12.6 µM) | 5.43 (≈ 12.6 µM) |  |
| CSc1nc2ccc(Br)cc2cc1C(c1ccc(Cl)cc1)C1(O)CCNC(Cc2ccccc2)C1 (stereo not shown) [Compound 89] |  |  | 3.58 (≈ 6.3 µM) | 1.8 (≈ 3.17 µM) |
| O=c1[nH]c2ccc(Cl)cc2cc1C(c1ccc(Cl)cc1)C1(O)CCNC(Cc2ccccc2)C1 (stereo not shown) [Compound 241] | 4.72 (≈ 9.57 µM) | 3.34 (≈ 6.77 µM) |  |  |
| C=CC1CC(O)(C(c2ccc(Cl)cc2)c2cc3cc(Br)ccc3[nH]c2=O)CCN1 (stereo not shown) [Compound 361] | 12.82 (≈ 27.1 µM) | 6.42 (≈ 13.6 µM) |  |  |
| COc1nc2ccc(F)cc2cc1C(c1ccc(Cl)cc1)C1(O)CCNC(c2ccc(F)cc2C)C1 (stereo not shown) [Compound 331] | 1.06 (≈ 2.08 µM) | 0.94 (≈ 1.85 µM) |  |  |
| COc1nc2ccccc2cc1C(c1ccccc1)C1(O)CCNC(c2ccccc2)C1 (stereo not shown) [Compound 414] | 18.39 (≈ 43.3 µM) | 18.39 (≈ 43.3 µM) |  |  |
| COc1nc2ccc(Cl)cc2cc1C(c1ccc(Cl)cc1)C1(O)CCNC(c2cccnc2)C1 (stereo not shown) [Compound 471] |  |  | 4.94 (≈ 9.99 µM) | 2.91 (≈ 5.89 µM) |
| COc1nc2ccc(S(C)(=O)=O)cc2cc1C(c1cccc(Cl)c1)C1(O)CCNC(Cc2ccc(F)cc2F)C1 (stereo not shown) [Compound 325] | >19.04 | 19.04 (≈ 32.4 µM) |  |  |
| O=c1[nH]c2ccc(Br)cc2cc1C(c1ccc(Cl)cc1)C1(O)CCNC(Cc2ccc(F)cc2F)C1 (stereo not shown) [Compound 314] | 3.05 (≈ 5.31 µM) | 4.83 (≈ 8.42 µM) |  |  |
| CSc1ccc2[nH]c(=O)c(C(c3ccc(Cl)cc3)C3(O)CCNC(Cc4ccc(F)c(F)c4)C3)cc2c1 (stereo not shown) [Compound 204] | 3.63 (≈ 6.71 µM) | 7.23 (≈ 13.4 µM) |  |  |
